In publication PMC7806935, “Exosite inhibition of ADAMTS-5 by a glycoconjugated arylsulfonamide” (Scientific Reports, 2021):

What was measured:
ADAMTS-5 [1] = biological target: T1, ADAMTS-5 (Homo sapiens, UniProt Q9UNA0); experiment: Versican digestion assay (V1-5GAG, sandwich ELISA), ADAMTS-5; type: biochemical; conditions: for IC50: protein substrate V1-5GAG, mean ± SEM (n = 3)
T1 construct: made in house
T1 sequence (Q9UNA0 262-930): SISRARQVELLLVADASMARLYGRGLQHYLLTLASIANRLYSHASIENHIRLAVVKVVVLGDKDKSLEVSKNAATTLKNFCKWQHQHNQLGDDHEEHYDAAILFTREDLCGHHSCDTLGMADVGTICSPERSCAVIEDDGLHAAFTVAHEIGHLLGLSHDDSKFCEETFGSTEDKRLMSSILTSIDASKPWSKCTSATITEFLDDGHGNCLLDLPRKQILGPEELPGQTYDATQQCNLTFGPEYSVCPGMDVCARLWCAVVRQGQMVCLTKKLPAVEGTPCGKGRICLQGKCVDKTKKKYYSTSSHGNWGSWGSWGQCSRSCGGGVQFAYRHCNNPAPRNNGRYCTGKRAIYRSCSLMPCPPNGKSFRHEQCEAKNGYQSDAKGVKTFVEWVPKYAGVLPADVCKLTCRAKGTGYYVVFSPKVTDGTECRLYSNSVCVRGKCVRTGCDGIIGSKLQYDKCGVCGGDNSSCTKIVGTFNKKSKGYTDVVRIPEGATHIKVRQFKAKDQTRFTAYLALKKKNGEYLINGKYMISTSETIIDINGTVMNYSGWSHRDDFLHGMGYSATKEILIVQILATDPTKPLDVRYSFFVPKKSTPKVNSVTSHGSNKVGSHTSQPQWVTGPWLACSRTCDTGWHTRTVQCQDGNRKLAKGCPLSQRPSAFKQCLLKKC
Procedure: (§1) All enzyme assays were conducted in TNC-B buffer (50 mM Tris–HCl, pH 7.5, 150 mM NaCl, 10 mM CaCl2, and 0.02% NaN3) at 37 °C. To avoid the formation of inhibitor aggregates, the detergent Brij-35 (0.05%) was added to the assay buffer. No aggregation was visually observed at concentrations up to 2 mM. The inhibitor stock solutions in DMSO (10 mM) were diluted at different concentrations in assay buffer and incubated with ADAMTS-4 or ADAMTS-5 for 2 h at 37 °C. Percent of inhibition was calculated from control reactions containing only DMSO. IC50 values were determined using the formula: vi/v0 = 1/(1 + [I]/IC50) where vi is the initial velocity of substrate cleavage in the presence of the inhibitor at concentration [I] and v0 is the initial velocity in the presence of an equal concentration (v/v) of DMSO.
(§2) ADAMTS-5 full-length (FL) (final concentration 0.4 nM), ADAMTS-5 MDTCS (0.4 nM) ADAMTS-5 MD (26 nM) or ADAMTS-4 (5.5 nM) were incubated with different concentrations of inhibitors or DMSO for 2 h at 37 °C in TNC-B buffer before addition of V1-5GAG (50 nM). At different time points (0–20 min), sub-samples were removed and reactions were stopped with EDTA. Maxisorp plates (VWR, Lutterworth, UK) were coated with 5 μg/mL anti-DPEEAE neoepitope antibody (Cat n. PA1-1748A, Life Technologies, Paisley, UK) in carbonate buffer pH 9.6 (16 h, 4 °C). This neoepitope antibody specifically recognizes the N-terminal versican fragment versikine, generated when ADAMTS-5 cleaves versican at the Glu441↓442Ala bond. Washing steps were performed in triplicate with 300 μL phosphate buffered-saline (PBS) containing 0.1% Tween-20 between each step. Plates were blocked with 3% bovine serum albumin (BSA)/PBS for 2 h, at RT. The samples from the digestion experiments were diluted in 3% BSA/PBS and added to the plate (100 μL, 2 h, RT). Bound versikine fragments were detected using anti-G1 monoclonal antibody (Cat n. ab171887, Abcam, Cambridge, UK) (3 μg/mL in 0.5% BSA/PBS, 1.5 h, RT), followed by horseradish peroxidase (HRP)-conjugated anti-mouse antibodies (Cat. N. P044701-2, Agilent Technologies LTD, Cheadle, UK) (2.4 μg/mL, 1 h, RT). The assay was developed by addition of o-phenylenediamine dihydrochloride (OPD, Cat n. 34006, Sigma Aldrich, Gillingham, UK) for 10 min and reactions were stopped with 2 M H2SO4. The absorbance was measured at 492 nm using a BioTeK Epoch (BioTek, Swindon, UK) plate reader. For each dilution, the amount of neoepitope generated was derived from a standard curve (0–1.56 nM) of V1-5GAG completely digested with ADAMTS-5. Initial velocities were calculated from the concentration of versikine generated as a function of reaction time and IC50 values were determined.
(§3) For inhibition studies, initial rates of proteolysis (< 20% cleavage) were analyzed between 0 and 20 min. For determination of the specificity constants (kcat/Km), digestion reactions were allowed to occur to completion (0–2 h). Data were analyzed as previously described.

ADAMTS-4 [2] = biological target: T2, ADAMTS-4 (Homo sapiens, UniProt O75173); experiment: Versican digestion assay (V1-5GAG, sandwich ELISA), ADAMTS-4; type: biochemical; conditions: protein substrate V1-5GAG, mean ± SEM (n = 3)
T2 construct: made in house
T2 sequence (O75173 213-837): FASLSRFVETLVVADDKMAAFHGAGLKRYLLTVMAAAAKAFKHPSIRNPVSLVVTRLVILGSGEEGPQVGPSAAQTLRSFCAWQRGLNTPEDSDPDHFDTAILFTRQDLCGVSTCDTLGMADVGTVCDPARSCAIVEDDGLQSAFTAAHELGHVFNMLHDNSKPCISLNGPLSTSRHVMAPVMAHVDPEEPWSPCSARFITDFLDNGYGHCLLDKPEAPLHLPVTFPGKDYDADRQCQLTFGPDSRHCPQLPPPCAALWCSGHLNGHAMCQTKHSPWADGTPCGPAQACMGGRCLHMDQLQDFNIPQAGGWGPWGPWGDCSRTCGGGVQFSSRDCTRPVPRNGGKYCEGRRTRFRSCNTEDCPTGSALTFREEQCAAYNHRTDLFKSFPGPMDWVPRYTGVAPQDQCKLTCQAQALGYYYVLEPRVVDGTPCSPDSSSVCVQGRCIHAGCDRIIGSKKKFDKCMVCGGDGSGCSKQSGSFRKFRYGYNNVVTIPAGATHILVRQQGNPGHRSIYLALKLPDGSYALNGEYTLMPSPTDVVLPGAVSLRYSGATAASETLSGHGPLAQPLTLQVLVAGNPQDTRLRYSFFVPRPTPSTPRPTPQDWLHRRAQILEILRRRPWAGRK
Procedure: as §1, §2, §3

ADAMTS-5 [3] = biological target: T1, ADAMTS-5; experiment: QF peptide cleavage assay, ADAMTS-5; type: biochemical; conditions: 12-residue QF peptide substrate; mean ± SEM (n = 3); read-out: IC50 (μM) QF peptide ATS5
Procedure: as §1
(§4) QF peptide cleavage assays were conducted in 96-well black microtiter plates (Scientific Laboratories Supplies Ltd, Wilford, UK) using a Fluostar Omega microplate reader (BMG Labtech, Aylesbury, UK). The activity of ADAMTS-4 (1 nM) and -5 (5 nM) was monitored for 2 h using the fluorescent peptide substrates fluorescein 5(6)-carbonyl-Ala-Glu-Leu-[…]-Gly-Arg-Pro-Ile-Ser-Ile-Ala-Lys-N,N,N0,N0-tetramethyl-6-carboxyrhodamine-NH2 (FAM-AE ~ LQGRPISIAK-TAMRA, ADAMTS-4) and fluorescein 5(6)-carbonyl-Thr-Glu-Ser-Glu ~ Ser-Arg-Gly-Ala-Ile-Tyr-Lys-Lys-N,N,N0,N0-tetramethyl-6-carboxyrhodamine-NH2 (FAM-TESE ~ SRGAIYKK-TAMRA, ADAMTS-5) (custom-synthesized by Bachem, Bubendorf, Switzerland) with an excitation wavelength of 485 nm and an emission wavelength of 538 nm. Final substrate concentrations were 1 μM and 40 μM for ADAMTS-4 and -5, respectively. Fluorescence was expressed in relative fluorescence units (RFU) and normalized against a blank containing only buffer and substrate. Emission spectra were recorded at several concentrations of each compound to exclude auto-fluorescence and maximal inhibitor concentrations were selected accordingly.

ADAMTS-4 [4] = biological target: T2, ADAMTS-4; experiment: QF peptide cleavage assay, ADAMTS-4; type: biochemical; conditions: 12-residue QF peptide substrate; mean ± SEM (n = 3); read-out: IC50 (μM) QF peptide ATS4
Procedure: as §1, §4

[5] = biological target: V1-5GAG, a truncated versican V1 variant (UniProt P13611)
[6] = read-out: IC50 (μM) V1-5GAG ATS5
[7] = read-out: IC50 (μM) V1-5GAG ATS4

Compound	IC50 (ADAMTS-5 [1]; read-out: IC50 (μM) ADAMTS-5) [µM]	IC50 (ADAMTS-4 [2]; read-out: IC50 (μM) ADAMTS-4) [µM]	kcat/Km for proteolysis of V1-5GAG (time course at 50 nM substrate, versikine by sandwich ELISA) [5] [M⁻¹ s⁻¹]	other results
CCC(C)N(Cc1cn(CCCOC2OC(CO)C(O)C(O)C2NC(C)=O)nn1)S(=O)(=O)c1ccc(OCc2ccc(F)cc2Cl)cc1 (mixture of isomers) [Compound 4c]	–	–	–	IC50 (ADAMTS-5 [3]): 57 ± 10 µM; IC50 (ADAMTS-4 [4]): > 50 µM; reduction in inhibitory properties (ADAMTS-5 [1]; benzyloxyphenyl compound compared to 4b): 6 fold; IC50 (ADAMTS-5 [1]; [6]): 62 ± 12 µM; IC50 (ADAMTS-4 [2]; [7]): 90 ± 44 µM
CCC(C)N(Cc1cn(CCCOC2OC(CO)C(O)C(O)C2NC(C)=O)nn1)S(=O)(=O)c1ccc(OCc2ccccc2)cc1 (mixture of isomers) [Compound 4d]	–	–	–	IC50 (ADAMTS-5 [3]): > 50 µM; IC50 (ADAMTS-4 [4]): > 50 µM; IC50 (ADAMTS-5 [1]; [6]): 90 ± 23 µM; IC50 (ADAMTS-4 [2]; [7]): 180 ± 50 µM
ADAMTS-5 MDTCS (lacking the C-terminal TS motif) (enzyme)	–	–	3.23e+06	–
ADAMTS-5 MDTCS K532A/K533A (enzyme)	–	–	675000	–
ADAMTS-5 MDTCS K532Q/K533Q (enzyme)	–	–	401000	–
ADAMTS-5 MDTCS K533A (enzyme)	–	–	1.25e+06	–
ADAMTS-5 MDTCS K533H (enzyme)	–	–	1.56e+06	–

Continued, in another order:

IC50 (ADAMTS-5 [1]; read-out: IC50 (μM) ADAMTS-5) [µM]	IC50 (ADAMTS-4 [2]; read-out: IC50 (μM) ADAMTS-4) [µM]	kcat/Km for proteolysis of V1-5GAG (time course at 50 nM substrate, versikine by sandwich ELISA) [5] [M⁻¹ s⁻¹]	Compound	other results
120 ± 20	50 ± 16	–	CCC(C)N(Cc1cn(C2OC(CO)C(O)C(O)C2NC(C)=O)nn1)S(=O)(=O)c1ccc(-c2ccccc2)cc1 (mixture of isomers) [Compound 3b]	reduction in inhibition of ADAMTS-5 versicanase activity (ADAMTS-5 [1]; sugar directly linked to the sulfonamide scaffold, compared with n-propyloxy link): ~ 13 fold
> 50	> 50	–	CC(=O)N[C@@H]1[C@@H](O)[C@H](O)[C@@H](CO)O[C@H]1n1cc(CN([C@@H](C(=O)OCc2ccccc2)C(C)C)S(=O)(=O)c2ccc(-c3ccccc3)cc2)nn1 [Compound 3a]	–
> 50	> 50	–	CC(=O)N[C@H]1[C@H](OCCCn2cc(CN([C@@H](C(=O)OCc3ccccc3)C(C)C)S(=O)(=O)c3ccc(-c4ccccc4)cc3)nn2)O[C@H](CO)[C@@H](O)[C@@H]1O [Compound 4a]	–
